Reference: patent US20080114066A1, “Synergistic Effects Of Docosahexaenoic Acid (DHA) And Carotenoid Absorption Of Cognitive Function” (Trustees of Tufts College, priority 2005, published 2008)
One block for each compound: values may come before it.

How the values were obtained:
[1] = test system: non-smoking women (60-80 years); experiment: Stroop Test (computerized); type: in vivo, human; conditions: group mean; for Stroop Test Total RT, Interference (NC-C): subtask 4 minus subtask 3
From the text: Subjects: Fifty non-smoking women (60-80 years) were recruited from the general population for a 4 month supplementation study. All subjects underwent a screening examination that includes a medical history, a physical examination, and a routine blood clinical chemistry profile. Volunteers with any history or biochemical evidence of lactose intolerance, liver, kidney, or pancreatic disease, anemia, active bowel disease or resection, insulin-dependent diabetes, easy bruising or bleeding, bleeding disorders, hyperglyceridemia, hyperlipidproteinemia, or alcoholism were excluded from the study. Moreover, individuals taking mineral oil or medications suspected of interfering with fat-soluble vitamin absorption were excluded. Subjects using steroids or non-steroid anti-inflammatory drugs, or antihistamine drugs were excluded. […] Subjects were excluded if they have taken any nutrient supplement for 2 months or more before admission into the study or carotene supplements 6 months or more before the study. Smoking was not permitted during the course of the study.
(§1) Women were randomly assigned to one of four groups: Control (n=10), DHA (n=14, DHA 800 mg/d), lutein (n=12, lutein 12 mg/d), and lutein+DHA (n=14, lutein 12 mg/d; DHA 800 mg/d) (C, D, L, and LD, respectively). The supplement type was randomized. Subjects visited the Jean Mayer USDA Human Nutrition Research Center on Aging at Tufts University on days that supplements were distributed and blood obtained (0 mo-baseline, 2 mo, and 4 mo). Subjects were instructed to take the supplement with a nutritional energy drink (8 oz., Boost®, Mead Johnson Nutritionals) but were otherwise asked to not alter their diets. The diet of each subject was monitored with food frequency questionnaires (Block G, et al., A data-based approach to diet questionnaire design and testing. Am J Epidemiol, 1986. 24: p. 453-469) completed at baseline, 2 months and 4 months to be sure that there were no confounding changes in dietary intake. All subjects completed at least two sets of cognitive and mood self-report tests, at the beginning of the study, then at the end of the study, after four months of supplementation, at the Schepens Eye Research Institute. Compliance was by monitored by interview, compliance calendars and capsule count. Both the subjects and the experimenter were masked to the experimental groups. Blood samples were collected at baseline, 2 months and 4 months, and serum was separated from red blood cells (800×g, 10 minutes). Aliquots of serum are stored at −70° C. until analyzed. At baseline and 2 months, a two month supply of placebo supplements, DHA (800 mg/d, DHASCO, Martek Biological Sciences), lutein (12 mg/d plus 0.5 mg zeaxanthin, Kemin Foods), or lutein+DHA (12 mg/d and 800 mg/d, respectively and nutritional energy drink was provided. At baseline and 4 months, subjects visited the Schepens Eye Research Institute (Boston, Mass.) for testing of MP optical density (MPOD) and an ophthalmic exam. There were two visits at each time point.
Supplementation Protocol. Dietary supplements in capsule form were Lutein (12 mg/day) (Kemin Foods) and Docosahexaenoic Acid (DHASCO) (800 mg/day) (Martek Biological Sciences). Participants in each of the four supplementation groups were instructed to drink one can of a nutritional supplement daily (Boost Plus) (Mead Johnson) when taking their capsules. Subjects ingested their dietary supplements daily for a period of 4 months. Both the subjects and the experimenter were masked to the experimental groups.
Tests and Measurements. The battery of cognitive tests included tests of memory and processing speed or attention and a measure of self-reported mood. […] Early cognitive markers of the incidence of dementia and mortality: A longitudinal population-based study of the oldest old. International Journal of Geriatric Psychiatry, 12, 53-59; Payton, M., Riggs, K. M., Spiro III, A., Weiss, S. T. & Hu, H. (1998). […]

macular pigment = experiment: Macular pigment optical density (MPOD), psychophysical method; type: in vivo, human; conditions: for Mean increase in total MPOD (change from baseline): 4 months of supplementation, area under the curve of 5 loci, mean ± se
Experimental: as §1
The method of assessing MPOD involves a three-channel Maxwellian view optical system and used a psycho physical method described by Hammond et al. (Hammond B. R., et al., Vision Res, 1996. 36: p. 2001-2012). […] MPOD was measured in two baseline sessions on separate days and in two sessions on separate days at the end of 4 months of supplementation.
Differences between cognitive and mood scores at baseline and after supplementation were tested by Student's t test for each treatment group. In the case of those variables where a significant change was found from baseline to end of study, correlations were calculated between age, education, serum levels of DHA and lutein, and test scores, for those test scores where the distribution was normal or near-normal. […]

[2] = Serum DHA by gas-liquid chromatography; type: in vivo, human; conditions: after 2 and 4 months of supplementation
Experimental: (§2) Women were randomly assigned to one of four groups: Control (n=10), DHA (n=14, DHA 800 mg/d), lutein (n=12, lutein 12 mg/d), and lutein+DHA (n=14, lutein 12 mg/d; DHA 800 mg/d) (C, D, L, and LD, respectively). The supplement type was randomized. Subjects visited the Jean Mayer USDA Human Nutrition Research Center on Aging at Tufts University on days that supplements were distributed and blood obtained (0 mo-baseline, 2 mo, and 4 mo). Subjects were instructed to take the supplement with a nutritional energy drink (8 oz., Boost®, Mead Johnson Nutritionals) but were otherwise asked to not alter their diets. The diet of each subject was monitored with food frequency questionnaires (Block G, et al., A data-based approach to diet questionnaire design and testing. Am J Epidemiol, 1986. 24: p. 453-469) completed at baseline, 2 months and 4 months to be sure that there were no confounding changes in dietary intake. […] Compliance was by monitored by interview, compliance calendars and capsule count. […] Aliquots of serum are stored at −70° C. until analyzed. […]
(§3) Serum carotenoids were extracted and analyzed by HPLC using the method described by Yeum et al. (Yeum, K. J., et al., Am J Clin Nutr, 1996. 64(4): p. 594-602.). […]
(§4) Results are expressed as mean ±SE. […]

[3] = background statement; cited from earlier work
[4] = Serum carotenoids (lutein, zeaxanthin) by HPLC; type: in vivo, human; conditions: after 2 and 4 months of supplementation
Experimental: as §2, §3, §4

[5] = Baseline, before supplementation
[6] = Final, after 4 months of supplementation

SMILES: CC/C=C\C/C=C\C/C=C\C/C=C\C/C=C\C/C=C\CCC(=O)O [DHA, cis-4,7,10,13,16,19-docosahexaenoic acid]
Stroop Test Mean RT, Name Colors [1, 5]: 838 ms | Stroop Test Mean RT, Name Colors-Words [1, 5]: 1269 ms | Stroop Test Mean RT, Read Words-Black [1, 5]: 879 ms | Stroop Test Mean RT, Read Words-Color [1, 5]: 715 ms | Stroop Test Total RT, Interference (NC-C) [1, 5]: 21.5 s | Stroop Test Mean RT, Name Colors [1, 6]: 884 ms | Stroop Test Mean RT, Name Colors-Words [1, 6]: 1277 ms | Stroop Test Mean RT, Read Words-Black [1, 6]: 748 ms | Stroop Test Mean RT, Read Words-Color [1, 6]: 727 ms | Stroop Test Total RT, Interference (NC-C) [1, 6]: 19.7 s | Retinal loci with significant increase in MPOD (macular pigment; 4 month change from baseline, loci 0.4°, 1.5°, 3°, 5°): 0.4° | Mean increase in total MPOD (change from baseline) (macular pigment): 0.037±0.068 OD

Serum concentration of DHA, change from baseline [2]: No significant changes | Serum concentration of lutein, change from baseline [4]: significantly increased
SMILES: CC1=C[C@H](O)CC(C)(C)[C@H]1/C=C/C(C)=C/C=C/C(C)=C/C=C/C=C(C)/C=C/C=C(C)/C=C/C1=C(C)C[C@@H](O)CC1(C)C [Lutein, lutein]
Stroop Test Mean RT, Name Colors [1, 5]: 1008 ms | Stroop Test Mean RT, Name Colors-Words [1, 5]: 1492 ms | Stroop Test Mean RT, Read Words-Black [1, 5]: 844 ms | Stroop Test Mean RT, Read Words-Color [1, 5]: 753 ms | Stroop Test Total RT, Interference (NC-C) [1, 5]: 24.2 s | Stroop Test Mean RT, Name Colors [1, 6]: 1014 ms | Stroop Test Mean RT, Name Colors-Words [1, 6]: 1462 ms | Stroop Test Mean RT, Read Words-Black [1, 6]: 945 ms | Stroop Test Mean RT, Read Words-Color [1, 6]: 883 ms | Stroop Test Total RT, Interference (NC-C) [1, 6]: 22.4 s | Subjects without increase in MPOD (non responders) (macular pigment; 4 months of lutein supplementation): Two of 14 | Mean increase in total MPOD (change from baseline) (macular pigment): 0.370±0.140 OD | Share transported in blood on HDL [3]: about 53% | Share transported in blood on LDL [3]: about 31% | Share transported in blood on VLDL [3]: about 16%
